In patent US6706718B2, “3-(2,4-dimethylthiazol-5-yl)indeno[1,2-c]pyrazol-4-one derivatives and their uses” (Bristol-Myers Squibb Company, priority 2000, dated 2004):
Where a name gives a salt, the structure may show the parent alone.

melting point	Compound
278 °C	Cc1nc(C)c(-c2[nH]nc3c2C(=O)c2c(NC(=O)NN4CCN(C)CC4)cccc2-3)s1 (as salt: hydrochloride)
> 300 °C	Cc1nc(C)c(-c2[nH]nc3c2C(=O)c2c(NC(=O)NN4CCOCC4)cccc2-3)s1 (as salt: TFA) [Example 2, 3-(2,4-dimethylthiazol-5-yl)-5-(morpholinocarbamoylamino)indeno[1,2-c]pyrazol-4-one]
